Source: PubChem BioAssay AID248 (DTP/NCI, 2004)
Several values for one entry are separate records, joined by “and”; a condition that tells them apart may be missing. Identical values can stand only once. Toxic doses and inconclusive results are not listed. Rule as the data show it: active = T/C of 150% or more; inactive = T/C below 125%.

Test system: L1210 leukemia ip in BDF1 mice, survival T/C
Assay: NCI In Vivo Anticancer Drug Screen. Data for tumor model L1210 Leukemia (intraperitoneal) in B6D2F1 (BDF1) mice
Conditions: endpoint: mean survival time, higher = longer survival
Summary of the method: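 Survival endpoint. Drug-treated group vs vehicle group, expressed as T divided by C. Tumor passaged by transplantation.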

[1] = dose: 100.0 mg/kg/injection, schedule: Q04DX003 (ip), vehicle: saline with Tween-80
[2] = dose: 200.0 mg/kg/injection, schedule: Q04DX003 (ip), vehicle: saline with Tween-80
[3] = dose: 50.0 mg/kg/injection, schedule: Q01DX009 (ip), vehicle: Klucel (hydroxypropylcellulose) (HPC)
[4] = dose: 100.0 mg/kg/injection, schedule: Q01DX009 (ip), vehicle: Klucel (hydroxypropylcellulose) (HPC)
[5] = dose: 100.0 mg/kg/injection, schedule: Q04DX003 (ip), vehicle: Klucel (hydroxypropylcellulose) (HPC)
[6] = dose: 200.0 mg/kg/injection, schedule: Q01DX009 (ip), vehicle: Klucel (hydroxypropylcellulose) (HPC)
[7] = dose: 200.0 mg/kg/injection, schedule: Q04DX003 (ip), vehicle: Klucel (hydroxypropylcellulose) (HPC)
[8] = dose: 400.0 mg/kg/injection, schedule: Q01DX009 (ip), vehicle: Klucel (hydroxypropylcellulose) (HPC)
[9] = dose: 400.0 mg/kg/injection, schedule: Q04DX003 (ip), vehicle: Klucel (hydroxypropylcellulose) (HPC)
[10] = dose: 200.0 mg/kg/injection, schedule: Q01DX009 (ip), vehicle: saline with Tween-80
[11] = dose: 50.0 mg/kg/injection, schedule: Q01DX009 (ip), vehicle: saline with Tween-80
[12] = dose: 100.0 mg/kg/injection, schedule: Q01DX009 (ip), vehicle: saline with Tween-80
[13] = dose: 100.0 mg/kg/injection, schedule: Q01DX001 (ip), vehicle: carboxymethylcellulose (CMC)

Measured: T/C

O/N=C(\CC(O)(C(F)(F)F)C(F)(F)F)c1cccs1
inactive: dose: 50.0 mg/kg/injection, schedule: Q04DX003 (ip), vehicle: saline with Tween-80 98 % of control | [1] 98 % of control | [2] 98 % of control | dose: 400.0 mg/kg/injection, schedule: Q04DX003 (ip), vehicle: saline with Tween-80 95 % of control

CN(Nc1c([N+](=O)[O-])cc([N+](=O)[O-])cc1[N+](=O)[O-])c1cccc2ccccc12
inactive: [3] 106 % of control | [4] 97 % of control | [5] 98 % of control | [6] 97 % of control | [7] 98 % of control | [8] 102 % of control | [9] 90 % of control

COc1ccc(C(O)(c2ccccc2)C(OC(=O)CCl)c2ccccc2)cc1 (configuration not stated)
inactive: [10] 90 % of control

CCC/C=C/C(O)C1CCCCC1 (configuration not stated)
inactive: [11] 92 % of control | [12] 95 % of control | [10] 95 % of control

Nc1[nH]c(=S)[nH]c(=S)c1N
inactive: dose: 125.0 mg/kg/injection, schedule: Q01DX Z (ip), vehicle: methylcellulose (MC) 101 % of control

CCOC(Cn1ccc(=O)[nH]c1=O)OCC
inactive: dose: 100.0 mg/kg/injection, schedule: Q04DX003 (ip), vehicle: saline sonified 109 % of control | dose: 200.0 mg/kg/injection, schedule: Q04DX003 (ip), vehicle: saline sonified 96 % of control | dose: 400.0 mg/kg/injection, schedule: Q04DX003 (ip), vehicle: saline sonified 105 % of control

C/C(=N\NC(=O)c1ccc([N+](=O)[O-])cc1)c1ccccc1
inactive: [13] 87 % of control | dose: 200.0 mg/kg/injection, schedule: Q01DX001 (ip), vehicle: carboxymethylcellulose (CMC) 87 % of control

CC1CN1CC1CO1 (configuration not stated)
inactive: dose: 0.5 mg/kg/injection, schedule: Q01DX001 (ip), vehicle: saline 98 % of control | dose: 0.5 mg/kg/injection, schedule: Q01DX009 (ip), vehicle: acetone 97 % of control | dose: 0.5 mg/kg/injection, schedule: Q04DX003 (ip), vehicle: acetone 104 % of control | dose: 1.0 mg/kg/injection, schedule: Q01DX001 (ip), vehicle: saline 95 % of control | dose: 1.0 mg/kg/injection, schedule: Q01DX009 (ip), vehicle: acetone 96 % of control | dose: 1.0 mg/kg/injection, schedule: Q04DX003 (ip), vehicle: acetone 101 % of control | dose: 2.0 mg/kg/injection, schedule: Q01DX001 (ip), vehicle: saline 98 % of control | dose: 2.0 mg/kg/injection, schedule: Q01DX009 (ip), vehicle: acetone 100 % of control | dose: 2.0 mg/kg/injection, schedule: Q04DX003 (ip), vehicle: acetone 104 % of control | dose: 2.97 mg/kg/injection, schedule: Q01DX009 (ip), vehicle: acetone 97 % of control | dose: 4.5 mg/kg/injection, schedule: Q01DX009 (ip), vehicle: acetone 97 % of control | dose: 6.75 mg/kg/injection, schedule: Q01DX009 (ip), vehicle: acetone 115 % of control | dose: 9.9 mg/kg/injection, schedule: Q01DX009 (ip), vehicle: acetone 102 % of control | dose: 15.0 mg/kg/injection, schedule: Q01DX009 (ip), vehicle: acetone 100 % of control | dose: 22.5 mg/kg/injection, schedule: Q01DX009 (ip), vehicle: acetone 94 % of control

CNc1ccccc1CCc1ccccc1CO
inactive: dose: 400.0 mg/kg/injection, schedule: Q04DX002 (ip), vehicle: Klucel (hydroxypropylcellulose) (HPC) 89 % of control

CN(CCCl)Cc1ccc(-c2c3ccccc3cc3c2ccc2ccccc23)cc1
inactive: dose: 25.0 mg/kg/injection, schedule: Q01DX001 (ip), vehicle: carboxymethylcellulose (CMC) 97 % of control | dose: 50.0 mg/kg/injection, schedule: Q01DX001 (ip), vehicle: carboxymethylcellulose (CMC) 89 % of control | [13] 92 % of control

Cc1cc(C)c(O)c(CN(C)C)c1
inactive: [1] 101 % of control | [2] 98 % of control

CCCCCCCCN(C)N=Nc1ccccc1C(=O)O
inactive: dose: 12.5 mg/kg/injection, schedule: Q01DX009 (ip), vehicle: Klucel (hydroxypropylcellulose) (HPC) 109 % of control | dose: 12.5 mg/kg/injection, schedule: Q04DX003 (ip), vehicle: Klucel (hydroxypropylcellulose) (HPC) 102 % of control | dose: 25.0 mg/kg/injection, schedule: Q01DX009 (ip), vehicle: Klucel (hydroxypropylcellulose) (HPC) 106 % of control and 116 % of control | dose: 25.0 mg/kg/injection, schedule: Q04DX003 (ip), vehicle: Klucel (hydroxypropylcellulose) (HPC) 95 % of control | [3] 122 % of control | dose: 50.0 mg/kg/injection, schedule: Q04DX003 (ip), vehicle: Klucel (hydroxypropylcellulose) (HPC) 108 % of control | dose: 60.0 mg/kg/injection, schedule: Q01DX009 (ip), vehicle: Klucel (hydroxypropylcellulose) (HPC) 122 % of control | [5] 114 % of control | [6] 114 % of control | [8] 92 % of control

Cc1ccc(NCCN2CCOCC2)c2c(=O)c3ccccc3sc12
inactive: dose: 9.0 mg/kg/injection, schedule: Q01DX Z (ip), vehicle: methylcellulose (MC) 92 % of control | dose: 14.0 mg/kg/injection, schedule: Q01DX Z (ip), vehicle: methylcellulose (MC) 104 % of control | dose: 21.0 mg/kg/injection, schedule: Q01DX Z (ip), vehicle: methylcellulose (MC) 97 % of control | dose: 32.0 mg/kg/injection, schedule: Q01DX Z (ip), vehicle: methylcellulose (MC) 109 % of control

CC(C)c1ccc(C(c2c(O)c3ccccc3oc2=O)c2c(O)c3ccccc3oc2=O)cc1
inactive: [4] 90 % of control | [5] 106 % of control | [6] 103 % of control | [7] 100 % of control | [9] 105 % of control

COc1ccc(/C=C/C(=N\O)c2ccc(OC)c(OC)c2)cc1OC
inactive: dose: 25.0 mg/kg/injection, schedule: Q01DX009 (ip), vehicle: saline 86 % of control | dose: 50.0 mg/kg/injection, schedule: Q01DX009 (ip), vehicle: saline 98 % of control | dose: 100.0 mg/kg/injection, schedule: Q01DX009 (ip), vehicle: saline 98 % of control | dose: 200.0 mg/kg/injection, schedule: Q01DX009 (ip), vehicle: saline 100 % of control | dose: 400.0 mg/kg/injection, schedule: Q01DX009 (ip), vehicle: saline 98 % of control

COc1cc2c(cc1O)CCCC(C)(C)C2=O
inactive: [11] 104 % of control | [12] 93 % of control | [10] 90 % of control

CC1(C)OCC(C2OC(C)(C)OC2C2COC(C)(C)O2)O1 (configuration not stated)
inactive: dose: 87.5 mg/kg/injection, schedule: Q04DX002 (ip), vehicle: saline 100 % of control | dose: 175.0 mg/kg/injection, schedule: Q04DX002 (ip), vehicle: saline 97 % of control | dose: 350.0 mg/kg/injection, schedule: Q04DX002 (ip), vehicle: saline 93 % of control

NC(=O)/C=C/c1c[nH]c2nccnc12
inactive: dose: 1.56 mg/kg/injection, schedule: Q01DX009 (ip), vehicle: water 100 % of control | dose: 3.12 mg/kg/injection, schedule: Q01DX009 (ip), vehicle: water 95 % of control | dose: 6.25 mg/kg/injection, schedule: Q01DX009 (ip), vehicle: water 100 % of control | dose: 12.5 mg/kg/injection, schedule: Q01DX009 (ip), vehicle: water 103 % of control | dose: 25.0 mg/kg/injection, schedule: Q01DX009 (ip), vehicle: water 86 % of control and 90 % of control
